Experimental data reported in US6858574B2, “Process for making perfume containing surfactant compositions having perfume burst when diluted” (Unilever Home & Personal Care USA, division of Conopco, Inc., priority 2002, dated 2005).
Like-named read-outs stand apart in the source and are kept apart here. Marks after values point to notes of the source that are not given here. Each block holds one molecule with its values, some of them ahead of it.

Columns and labels:
[1] = Fragrance burst (perfume headspace) of single perfumes in 5% sodium laurate shower product diluted through the CMC; type: physicochemical; details: diluted through the CMC (FIG. 3)
Description: It is precisely this “burst” or increase in headspace (e.g., from start of dilution up until CMC) and methods for determining in what compositions it will occur that is the basis of the subject invention.
Several different fragrance molecules were tested experimentally to validate the theoretical predictions. Limonene, p-cymene, α-pinene, tetrahydrolinolool, α-ionone, γ-methyl ionone, benzyl acetate and 2-phenoxylethanol were tested in a 5% sodium laurate shower product and diluted a number of times through the CMC (FIG. 3).

[2] = GC headspace vs dilution of components of a perfume mixture in 5 wt. % sodium laurate formulation; type: physicochemical; details: twelve-component perfume mixture, 5 wt. % sodium laurate (FIG. 9)
Description: A typical fully formulated perfume used in a commercial product, e.g., personal wash formulation, usually is a multi-component composition in which the properties of each perfume component can vary dramatically. A typical perfume mixture in a 5 wt. % sodium laurate formulation was tested for its “perfume burst” behaviour upon dilution. […] Each component has a unique dilution curve (GC headspace vs. dilution factor) governed by the factors (hydrophobicity, volatility, etc) discussed previously.

[3] = cited from earlier work
[4] = Critical micellization concentration (CMC) of surfactants; type: physicochemical
Excerpt: As noted, the perfume burst is affected not only by the perfume properties, but also by properties of the formulation in which the perfume is found. Thus, the number and type of surfactant micelles found in a surfactant solution also has an effect. […] The critical micellization concentration is defined as the surfactant concentration at which micelles begin to form from unassociated surfactant monomers (M. J. Rosen, Surfactants and Interfacial Phenomena, 2nd Ed., 1989). Conversely, in a surfactant with low critical micelle concentration (e.g., one where micelles do form easily or, stated differently, don't break apart as readily once formed), a perfume, being generally more hydrophobic, tends to stay in the surfactant more readily. As a result, the perfume will tend not to “burst” (increase perfume headspace) as readily and, to achieve more headspace, more dilution may be required. The CMC of the surfactant system also affects “perfume burst”. Thus, for example, a surfactant system of relatively low CMC (e.g., sodium lauryl ether sulfate, also known as SLES) lowers the PBI and can greatly reduce the expected “perfume burst” on dilution. By contrast, surfactant system of relatively higher CMC (e.g., sodium laurate compared to SLES) would raise PBI and can thus increase “perfume burst” on dilution.

[5] = Fragrance burst in shower liquids with different surfactant concentrations; type: physicochemical; details: sodium laurate at 5, 10, 15 (20) wt. % (FIG. 6)
[6] = Fragrance burst in shower liquids with surfactants of different CMC; type: physicochemical; details: 5% sodium laureth sulfate (CMC=0.0011) vs 5% sodium laurate (CMC=0.005) (FIG. 8)
Description: Limonene and γ-Methyl Ionone were tested in two different shower liquid samples. One product was formulated with 5% sodium laurate (CMC=0.005 wt/wt) and the second with 5% sodium laureth sulfate (CMC=0.0011 wt/wt) (FIG. 8).

Molecule: OCCOc1ccccc1 [2-Phenoxyethanol]
fragrance burst [1]: no fragrance burst at all

Molecule: CCCCCCCCCCCCOC(=O)CCS(=O)(=O)[O-].[Na+] [C12H25OOC(CH2)2SO3^−Na^+ (SCI)]
CMC (wt./wt.) ([3]; 30° C.): 0.00076* (30° C.) wt./wt.

Molecule: CCCCCCCC(=O)NCCC[N+](C)(C)CC(=O)[O-] [Caprylamidopropyl betaine]
CMC (wt./wt.) [4]: 0.00032 wt./wt.

Molecule: CC(C)[C@@H]1CC[C@@H](C)CC1=O [Menthone]
effect of surfactant concentration on fragrance burst [5]: maximum fragrance burst is reached with fewer dilutions in the 5% soap product

Molecule: CCCCCCCCCCCC(=O)[O-].[Na+] [Sodium laurate]
CMC ([3]; Example 9): 0.005 wt/wt | CMC ([3]; Example 11): 0.5 wt. %

Molecule: CC(=O)/C=C/C1C(C)=CCCC1(C)C (stereo not drawn) [α-ionone]
fragrance burst [1]: 430%

Molecule: CC(=O)/C(C)=C/C1C(C)=CCCC1(C)C (centres unmarked) [γ-methyl ionone]
fragrance burst [1]: 460% | effect of surfactant concentration on fragrance burst [5]: maximum fragrance burst is reached with fewer dilutions in the 5% soap product | effect of surfactant CMC on fragrance burst [6]: lower overall fragrance burst | dilution behaviour of component (GC headspace) [2]: as high as seven times

Molecule: Sodium laureth sulfonate (2EO)
CMC (wt./wt.) ([3]; 50° C.): 0.0011*** wt./wt. | CMC ([3]; Example 9): 0.0011 wt/wt | CMC ([3]; Example 11): 0.1 wt. %

Molecule: Sodium laureth sulfonate (3EO)
CMC (wt./wt.) ([3]; 50° C.): 0.00084*** wt./wt.

Second part, led by results:

fragrance burst [1]: no fragrance burst at all
Molecule: CC(=O)OCc1ccccc1 [Benzyl Acetate]
dilution behaviour of component (GC headspace) [2]: perfume headspaces decrease upon dilution

fragrance burst [1]: ~95% | effect of surfactant CMC on fragrance burst [6]: lower overall fragrance burst
Molecule: C=C(C)[C@H]1CC=C(C)CC1 [Limonene]
effect of surfactant concentration on fragrance burst [5]: maximum fragrance burst is reached with fewer dilutions in the 5% soap product

fragrance burst [1]: 320%
Molecule: CCC(C)(O)CCCC(C)C (centres unmarked) [Tetrahydrolinolool]

fragrance burst [1]: 120%
Molecule: Cc1ccc(C(C)C)cc1 [p-Cymene]

fragrance burst [1]: 50%
Molecule: CC1=CCC2CC1C2(C)C (stereo not drawn) [α-pinene]
